Test results as given in US8512941B2, “Biological material and methods and solutions for preservation thereof” (Core Dynamics Limited, priority 2004, dated 2013).

Legend:
[1] = tested on: Red blood cells (RBC); assay: RBC survival (cell count) after freezing/thawing or lyophilizing/rehydrating at 2.5 ml; assay type: cell-based; settings: thawed, not lyophilized
Description: Red blood cells (RBC) were separated from whole blood received from the Israeli Blood Bank. The blood was centrifuged for 10 minutes at 1500 g and the plasma was discarded. […] Afterwards the supernatant was discarded, and an equal volume of cryopreservation solution selected from the solutions in Table I was added to the packed RBC. Different volumes (2.5-50 ml) of the RBC suspension were transferred to a 16-25 mm diameter glass test tube ([…], Israel). The experiment of freezing 200 ml of RBC suspension was done in a 2000 ml freezing bag (Baxter-Fenwal, USA). Samples were then either frozen and thawed in a water bath at 37° C. or lyophilized and rehydrated with double distilled water (DDW) at 37° C. Glass test tubes containing RBC were frozen in a modified MTG freezing apparatus, as described in WO 03/020874 (manufactured by IMT, Israel). The thermal gradient in the cooling unit was set to 5.5° C./mm or 10.5° C./mm or 15.5° C./mm (as detailed below) with final temperatures of -50° C., -100° C. or -150° C. […] During freezing the test tubes that contained only 2.5 ml samples were rotated at a rate of 56 rpm. Subsequent to freezing, biological material was taken from each test tube to test for cell viability. Lyophilization was performed in a commercial lyophilizer (Labconco, USA) with a condenser temperature of -82° C. for 72 hours. The biological material was is rehydrated by adding DDW to reach the sample's original volume. Frozen (but not lyophilized) material was thawed by immersion in a water bath at 37° C. for until it melted. Melting was observed visually. Cells were counted using the […] 60 cell counter (ABX, France), in accordance with the manufacturer's manual. This device provides a complete cell count (CBC) that includes parameters such as: cell number, hematocrit, mean cell volume, hemoglobin, etc. […] In these experiments the cell suspension volume was 2.5 ml.

[2] = tested on: RBC; settings: introduction of trehalose into fresh RBC, not frozen or freeze-dried; Satpathy et al. 2004; cited from earlier work

Compound: OC[C@H]1O[C@H](O[C@H]2O[C@H](CO)[C@@H](O)[C@H](O)[C@H]2O)[C@H](O)[C@@H](O)[C@@H]1O [Trehalose, reference compound]
- RBC survival, 1A Thawed ([1]; frozen at 1,000° C./min, percentage of total fresh cells counted): 89.04%
- RBC survival, 2A Thawed ([1]; frozen at 2,000° C./min): 93.24%
- hemolysis [2]: causes significant hemolysis
